Patent US20240190904A1, “Heteroaryl compounds as inhibitors of RIP2 kinase, composition and application thereof” (Accro Bioscience (HK) Limited, priority 2021, published 2024)
Values after ≈ are worked out from the molar mass of the structure shown.

Legend:
[1] = target: RIP2 kinase (Homo sapiens (Human), UniProt O43353); assay: Binding affinity assay (Kd)
Experimental: For most assays, kinase-tagged T7 phage strains were prepared in an E. coli host derived from the BL21 strain. E. coli were grown to log-phase and infected with T7 phage and incubated with shaking at 32° C. until lysis. The lysates were centrifuged and filtered to remove cell debris. The remaining kinases were produced in HEK-293 cells and subsequently tagged with DNA for qPCR detection. Streptavidin coated magnetic beads were treated with biotinylated small molecule ligands for 30 minutes at room temperature to generate affinity resins for kinase assays. The liganded beads were blocked with excess biotin and washed with blocking buffer (SeaBlock (Pierce), 1% BSA, 0.05% Tween 20, 1 mM DTT) to remove unbound ligand and to reduce non-specific binding. Binding reactions were assembled by combining kinases, liganded affinity beads, and test compounds in 1× binding buffer (20% SeaBlock, 0.17×PBS, 0.05% Tween 20, 6 mM DTT). Test compounds were prepared as 111× stocks in 100% DMSO. Kds were determined using an 11-point 3-fold compound dilution series with three DMSO control points. All compounds for Kd measurements are distributed by acoustic transfer (non-contact dispensing) in 100% DMSO. The compounds were then diluted directly into the assays such that the final concentration of DMSO was 0.9%. All reactions performed in polypropylene 384-well plate. Each was a final volume of 0.02 ml. The assay plates were incubated at room temperature with shaking for 1 hour and the affinity beads were washed with wash buffer (1×PBS, 0.05% Tween 20). The beads were then re-suspended in elution buffer (1×PBS, 0.05% Tween 20, 0.5 μM nonbiotinylated affinity ligand) and incubated at room temperature with shaking for 30 minutes. The kinase concentration in the eluates was measured by qPCR.
An 11-point 3-fold serial dilution of each test compound was prepared in 100% DMSO at 100× final test concentration and subsequently diluted to 1× in the assay (final DMSO concentration=1%). Most Kds were determined using a compound top concentration=30,000 nM. If the initial Kd determined was <0.5 nM (the lowest concentration tested), the measurement was repeated with a serial dilution starting at a lower top concentration.
Binding constants (Kds) were calculated with a standard dose-response curve using the Hill equation: […]
The Hill Slope was set to −1.
Curves were fitted using a non-linear least square fit with the Levenberg-Marquardt algorithm.

[2] = Thermodynamic solubility test; assay type: physicochemical; conditions: thermodynamic from solid; FaSSIF pH 6.5, thermodynamic
Experimental: • a. Add assay buffer into compound powder to make 4 mg/mL solution. • b. Sample tubes are shaken for 1 hour (1000 rpm), then equilibrated over night at room temperature. • c. Samples are centrifuged (10 min-12000 rpm) to precipitate un-dissolved particles. • d. Supernatants are transferred to new tubes. • e. Concentrations of the supernatants after centrifugation are determined by LCMSMS detection.

[3] = Metabolic stability test, DLM; assay type: in vitro ADME; conditions: dog, liver microsomes
Experimental: (§1) • 1. Buffers: • Buffer A: 1.0 L of 0.1 M monobasic Potassium Phosphate buffer containing 1.0 mM EDTA • Buffer B: 1.0 L of 0.1 M Dibasic Potassium Phosphate buffer containing 1.0 mM EDTA • Buffer C: 0.1 M Potassium Phosphate buffer, 1.0 mM EDTA, pH 7.4 by titrating 700 mL of buffer B with buffer A while monitoring with the pH meter. • 2. Reference compounds (Ketanserin) and test compounds spiking solution: • 500 μM spiking solution: add 10 μL of 10 mM DMSO stock solution into 190 μL ACN. • 1.5 μM spiking solution in microsomes (0.75 mg/mL): add 1.5 μL of 500 μM spiking solution and 18.75 μL of 20 mg/mL liver microsomes into 479.75 μL of Buffer C on ice. • 3. Prepare NADPH stock solution (6 mM) by dissolving NADPH into buffer C. • 4. Dispense 30 μL of 1.5 μM spiking solution containing 0.75 mg/mL microsomes solution to the assay plates designated for different time points (0-, 5-, 15-, 30-, 45-min) on ice. • 5. For 0-min time point, add 135 μL of ACN containing IS to the wells of 0-min plate and then add 15 μL of NADPH stock solution (6 mM). • 6. Pre-incubate all other plates at 37° C. for 5 minutes. • 7. Add 15 μL of NADPH stock solution (6 mM) to the plates to start the reaction and timing. • 8. At 5-min, 15-min, 30-min, and 45-min, add 135 μL of ACN containing IS to the wells of corresponding plates, respectively, to stop the reaction. • 9. After quenching, shake the plates at the vibrator (IKA, MTS 2/4) for 10 min (600 rpm/min) and then centrifuge at 5594 g for 15 min (ThermoMultifuge×3R). • 10. Transfer 50 μL of the supernatant from each well into a 96-well sample plate containing 50 μL of ultra pure water (Millipore, ZMQS50F01) for LC/MS analysis.

[4] = system: Caco-2; assay: Caco-2 permeability test; assay type: in vitro ADME; conditions: Caco-2
Experimental: (§2) • 1. Prewarm HBSS Buffer in 37° C. water bath • 2. Take compounds from −20° C., sonicate for a few minutes (no less than 1 minute) • 3. Solution preparation
(§3) For A-to-B direction: • HBSS buffer with 0.3% DMSO and 5 μM LY: add 150 μL DMSO and 50 μL LY (5 mM) into 50 ml HBSS buffer (pH7.4). • HBSS buffer with 0.1% DMSO and 5 μM LY: add 50 μL DMSO and 50 μL LY (5 mM) into 50 mL HBSS buffer (pH7.4).
(§4) For B-to-A direction: • HBSS buffer with 0.3% DMSO: add 150 μL DMSO into 50 ml HBSS buffer (pH7.4) • HBSS buffer with 0.1% DMSO: add 50 μL DMSO into 50 ml HBSS buffer (pH7.4).
(§5) Receiver Solution Buffer:
(§6) Prepare HBSS buffer with 0.4% DMSO: add 200 μL DMSO into 50 ml HBSS buffer (pH7.4).
(§7) For B-to-A direction: • Prepare HBSS buffer with 0.4% DMSO and 5 uM LY: add 200 μL DMSO and 50 μL LY (5 mM) into 50 ml HBSS buffer (pH7.4).
(§8) Take cell culture plate out of incubator, wash the cell monolayers with HBSS buffer, and then measure TEER values at Rm temperature. • 5. Centrifuge the compound solution (from step 3) at 4000 rpm for 5 min before loading to donor chambers. • 6. Add solution based on the volumes listed in the following table (make sure to take extra 100 uL of donor sample for T0 as Backup).
(§9) • 7. To determine LY concentration in the apical chamber, take 100 μL sample from apical chambers into an opaque plate for LYT0. • 8. Prewarm apical and basolateral plates at 37° C. for about 5 min, then begin transport by placing the apical plate onto basolateral plate. • 9. Keep the plates in incubator at 37° C. for 90 min • 10. Prepare 20× solution
(§10) • 11. Separate the apical plate from the basolateral plate after 90-min incubation. • 12. Take 100 μL samples from basolateral plate to an opaque plate as LYT90. • 13. Measure LY concentrations for LYT0 and LYT90 by Fluorometer (at excitation of 485 nm/emission of 535 nm). • 14. Sample preparation for LC-MS/MS: Donor or receiver samples are diluted by 0.4% DMSO HBSS, then mix with ACN with IS (Osalmid or Imipramine)

[5] = Caco-2 permeability test; assay type: in vitro ADME; conditions: human, Caco-2, pH 7.4
Experimental: as §2, §3, §4, §5, §6, §7, §8, §9, §10

[6] = Metabolic stability test, RLM; assay type: in vitro ADME; conditions: rat, liver microsomes
Experimental: as §1

[7] = Metabolic stability test, HLM; assay type: in vitro ADME; conditions: human, liver microsomes
Experimental: as §1

RIP2 kinase, sequence (O43353 whole entry): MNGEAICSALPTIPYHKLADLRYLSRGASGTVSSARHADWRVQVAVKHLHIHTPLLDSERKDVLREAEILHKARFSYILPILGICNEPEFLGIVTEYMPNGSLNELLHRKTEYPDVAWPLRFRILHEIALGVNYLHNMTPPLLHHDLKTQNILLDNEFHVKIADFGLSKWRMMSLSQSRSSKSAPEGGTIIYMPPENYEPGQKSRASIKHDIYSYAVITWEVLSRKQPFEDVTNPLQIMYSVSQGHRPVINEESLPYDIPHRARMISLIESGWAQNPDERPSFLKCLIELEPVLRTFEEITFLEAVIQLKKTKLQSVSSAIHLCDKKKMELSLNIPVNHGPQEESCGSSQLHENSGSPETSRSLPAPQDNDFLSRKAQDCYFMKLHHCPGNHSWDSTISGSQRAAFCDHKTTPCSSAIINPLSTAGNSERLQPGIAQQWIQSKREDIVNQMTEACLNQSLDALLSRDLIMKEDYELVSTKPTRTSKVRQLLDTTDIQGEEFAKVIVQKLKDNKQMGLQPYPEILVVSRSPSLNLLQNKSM

Kd [1]: 1.4 nM
solubility [2]: 4.33 mM (≈ 2170 µg/mL)
CLint scaled at 1 μM ([3]; pH 7.4, read-out: Cl (mL/min/kg) DLM): 17.4 mL/min/kg
half-life at 1 μM ([3]; pH 7.4, read-out: T1/2 (min) DLM): 198 min
permeability (in words) [4]: low
Papp A→B at 90 min ([5]; A-B): < 0.14 ×10⁻⁶ cm/s
Papp B→A at 90 min ([5]; B-A): 0.27 ×10⁻⁶ cm/s
efflux ratio at 90 min ([5]; efflux ratio, read-out: Caco-2 Permeability B-A/A-B): > 1.93
CLint scaled at 1 μM ([6]; pH 7.4, read-out: Cl (mL/min/kg) RLM): 31.6 mL/min/kg
half-life at 1 μM ([6]; pH 7.4, read-out: T1/2 (min) RLM): 78.7 min
CLint scaled at 1 μM ([7]; pH 7.4, read-out: Cl (mL/min/kg) HLM): 0.69 mL/min/kg
half-life at 1 μM ([7]; pH 7.4, read-out: T1/2 (min) HLM): 2520 min
SMILES: CP(C)(=O)c1cc2c(Nc3ccc4scnc4c3)ccnc2cc1-c1cnn(C2CCNCC2)c1 [A13]
